Patent US20050171206A1, “Therapeutical use” (priority 2004, published 2005)
Where “and” joins values, the source holds several entries; their conditions need not be identical. Equal entries are not always repeated.

Tests used:
SMN2 genes = settings: in vitro, cell cultures; cited from earlier work
SMA patients = settings: published clinical trials; cited from earlier work
[1] = test system: SMN full length (SMN-fl) transcripts (SMN2 gene expression) in leukocytes; assay: SMN full length transcripts in leukocytes by real-time RT-PCR during one week of oral triButyrate (Example 1); assay type: in vivo, human
Procedure: (§1) Six SMA patients (P1-P6) and three parents (M2, M3, F6) were enrolled for a pilot trial. Four patients had SMA type II (P1-P4). P1 is a child who had lost the ability to sit unaided. P3 is […] and P4 and P5 are both […]. Two patients (P5 and P6) had SMA type III. The trial was approved by the Ethical Committee of the Catholic University. A written informed consent was obtained from all patients/parents. triButyrate®, the sodium salt of phenylbutyrate was administered at 500 mg/kg/d (maximum dose 19 g/d), divided in 6 doses(every 4 hours) for 7 days. Blood samples were taken from patients and parents on day 0 (T0, baseline) and on days 1-4 (T1-T4) and 7 (T7) of drug administration, and from 5 healthy untreated controls on 5 consecutive days (T0-T4). Total RNA was extracted by Trizol from leukocytes immediately after hypotonic lysis of samples.
SMN full length (SMN-fl) transcripts were measured by realtime RT-PCR using ABI-PRISM 7700 Sequence Detector System (Applied Biosystems) as described elsewhere. (Andreassi C, Angelozzi C, Tiziano F D, Vitali T, De Vincenzi E, Boninsegna A, Villanova M, Bertini E, Pini A, Neri G, Brahe C. Eur. J. Hum. Genet. 2004; 12:59-65) Transcripts were amplified at least twice in triplicate or quadruplicate. SMN transcript levels were calculated by comparing SMN versus glyceraldehyde-3-phosphate dehydrogenase transcripts, whose expression is not affected by triButyrate®. (Andreassi C, Angelozzi C, Tiziano F D, Vitali T, De Vincenzi E, Boninsegna A, Villanova M, Bertini E, Pini A, Neri G, Brahe C. Eur. J. Hum. Genet. 2004; 12:59-65) The relative amounts of SMN-fl transcripts in samples obtained from treated patients/parents and untreated controls were normalized versus those of T0.
(§2) F of Fisher, ANOVA and T of Student for independent variables tests were performed to assess statistical significance by using Winstat 4.01 and SPSS 10.0.1 for Windows software. P values <0.05 were accepted as significant.

[2] = test system: SMA patients (muscle strength); assay: Myometry with hand-held dynamometer, day 0 and day 7 (Example 1); assay type: in vivo, human
Procedure: as §1
Muscle strength was assessed using a hand-held dynamometer (Citec, CIT Technics BV). (Merlini L, Mazzone E S, Solari A, Morandi L. Muscle Nerve 2002; 26:64-70) Patients were tested independently four times by two raters, and the highest measure of the maximal voluntary isometric contraction was selected. Inter-rater coefficients (ICC) were determined as described by Shrout et al. (Shrout P E, Fleiss J L. Pscychol Bull 1979; 86:420-428)
as §2

SMA patients and parents = assay: Clinical observations and tolerability, pilot trial (Example 1); assay type: in vivo, human
Procedure: as §1
These subjective improvements prompted us to perform myometry in the other four patients on day 0 and 7 (table 1.2).

[3] = test system: children with SMA II (motor function); assay: Hammersmith functional motor scale, open trial in SMA II children (Example 2); assay type: in vivo, human; settings: for Hammersmith functional scale score, mean: 10 children, baseline mean 13
Description: Thirteen patients with SMA II, all with homozygous absence of SMN1, followed at the Bambino Gesu Hospital or at the UILDM centre in Rome were asked to participate in the present prospective open trial. In order to have a relatively homogeneous cohort of patients who could all be tested on the same scale only children with SMA II between 30 months and 12 years were included. Children younger than 30 months were excluded as the Hammersmith scale can only be reliably and consistently performed and scored after this age. (Main M, Kairon H, Mercuri E, Muntoni F. Eur J Paediatr Neurol. 2003;7:155-59.) Children older than 12 were excluded as after this age several complications, such as severe scoliosis and contractures are more frequent. Children who had been part of other pharmacological trials (e.g. salbutamol, creatine) in the year before the present trial started or who had had corrective surgery for scoliosis were also excluded.
(§3) The sodium salt of phenylbutyrate (triButyrate®) was administered orally in powder or tablets at 500 mg/kg/d (maximum dose 19 g/d), divided in 5 doses (every 4 hours except for an 8 hours night interval). An intermittent schedule (7 days on and 7 days off) was arbitrarily chosen, similarly to a previously reported schedule for treatment of sickle cell disease. (Atweh G F, Sutton M, Nassif I, Boosalis V, Dover G J, Wallen-stein S, Wright E, McMahon L, Stamatoyannopoulos G, Faller D V, Perrine S P Blood.1999;93:1790-97.) When this dosage was tolerated, patients were advised to continue for 9 weeks (5 weeks on and 4 weeks off).
(§4) The assessment consisted of a detailed clinical physiotherapy evaluation including the Hammersmith functional motor scale and, in children older than 5 years, assessment of muscle strength and of forced vital capacity.
The scale consists of 20 items, each scored on a 3 point scoring system, (2 for unaided, 1 for assistance and 0 for inability). A total score can be achieved by summing the scores for all the individual items. The score can range from 0, if all the activities are failed, to 40, if all the activities are achieved.
All items have to be tested without thoracic braces or leg orthoses. The scale can be completed in a maximum of 15 minutes. (Main M, Kairon H, Mercuri E, Muntoni F. Eur J Paediatr Neurol. 2003;7:155-59.)
The scale was performed by 2 examiners (MP, SM) and each child was always assessed by the same examiner throughout the 3 assessments. Both observers had training sessions with a senior physiotherapist (MM) and the intra and inter-rater reliability was formally assessed in 5 children before starting the trial. In agreement with the previously reported data on intra and inter-observer reliability, these were >95%. (Main M, Kairon H, Mercuri E, Muntoni F. Eur J Paediatr Neurol. 2003;7:155-59.)
The primary measure of efficacy in this trial was the change from baseline to 3 and 9 weeks in motor function as determined by the Hammersmith motor scale. Secondary measures included the change from baseline to 3 and 9 weeks in myometry scores and in FVC in the children older than 5 years. The primary outcome was analysed using repeated measures ANOVA. Statistical significance was determined at p<0.05. An estimate of SD of change in each of the measures considered is presented with 95% confidence intervals. The number of children older than 5 years who could be reliably assessed for myometry and FVC was too small to allow any meaningful statistical analysis for these measures.

[4] = test system: children with SMA II older than 5 years (muscle strength); assay: Myometry, hand held electronic myometer (Example 2); assay type: in vivo, human; design: myometry: unit not given here; settings: for myometry: individual children
Procedure: as §3, §4
(§5) Measurements lasted 3 to 5 seconds. The scores were grouped in a leg mega score and arm megascore by adding the best readings for each individual muscle within the subgroup and subdividing this score by the number of muscles examined. Intra-observer variation performed before the implementation of the study was less than 5%. Both myometry and measurement of joint contractures were performed by the same physiotherapist.

[5] = test system: children with SMA II older than 5 years; assay: Forced vital capacity by spirometer (Example 2); assay type: in vivo, human; design: FVC: unit not given here; settings: for FVC: individual children
Procedure: as §3, §4
This was measured using a standard spirometer (Spyroanalyser ST-95, Fukuda Sangyo Co, LTD, Philippines) and using the best of three attempts.

children with SMA II [6] = assay: Joint contractures (Example 2); assay type: in vivo, human; settings: between baseline and 9 weeks
Procedure: as §5

children with SMA II [7] = assay: Side effects (Example 2); assay type: in vivo, human
Procedure: The sodium salt of phenylbutyrate (triButyrate®) was administered orally in powder or tablets at 500 mg/kg/d (maximum dose 19 g/d), divided in 5 doses (every 4 hours except for an 8 hours night interval). An intermittent schedule (7 days on and 7 days off) was arbitrarily chosen, similarly to a previously reported schedule for treatment of sickle cell disease.

[8] = cited from earlier work
[9] = i.v. administration, non-human primates; cited from earlier work
[10] = 200 g per person and day; cited from earlier work
[11] = according to recent publications

O=C(O)CCCc1ccccc1 [PBA, 4-phenylbutyric acid]
SMN protein levels (SMN2 genes): effective in enhancing SMN protein levels
expression of the SMN2 genes (SMN2 genes): effective in increasing the expression of the SMN2 genes
number of SMN containing nuclear structures (SMN2 genes): effective in enhancing

CC(C)(C)NCC(O)c1ccc(O)c(CO)c1 (stereo not shown) [albuterol]
clinical outcome in SMA patients (SMA patients): improvement in clinical symptoms

CCCC(=O)[O-].[Na+] [sodium butyrate]
expression of the SMN2 genes (SMN2 genes): can increase SMN2 gene expression in vitro

O=C([O-])CCCc1ccccc1.[Na+] [triButyrate®, Sodium 4-phenylbutyrate]
relative SMN-fl transcript levels during administration compared to baseline ([1]; all patients, one or more blood samples): significant increase
Percent SMN-fl transcripts variation versus T0, T1 mean(+-SD) ([1]; day 1 of 500 mg/kg/d oral, leukocytes, individual patients P1-P6 and parents M2, M3, F6, 500 mg/kg/day): +53 (0.1) % and −1 (0.0) % and +54 (0.2) % and +68 (0.0) % and +65 (0.1) % and +117 (1.0) % and +280 (0.7) % and +73 (0.0) % and +432 (0.2) %
Percent SMN-fl transcripts variation versus T0, T2 mean(+-SD) ([1]; day 2 of 500 mg/kg/d oral, leukocytes, individual patients/parents, 500 mg/kg/day): +184 (0.6) % and +35 (0.3) % and +25 (0.1) % and +14 (0.0) % and −2 (0.0) % and +96 (0.1) % and +27 (0.0) % and +63 (0.1) %
Percent SMN-fl transcripts variation versus T0, T3 mean(+-SD) ([1]; day 3 of 500 mg/kg/d oral, leukocytes, individual patients/parents, 500 mg/kg/day): +7 (0.2) % and +131 (0.5) % and +116 (0.0) % and −37 (0.0) % and +197 (0.7) % and −15 (0.1) % and +21 (0.1) % and +82 (0.2) %
Percent SMN-fl transcripts variation versus T0, T4 mean(+-SD) ([1]; day 4 of 500 mg/kg/d oral, leukocytes, individual patients/parents, 500 mg/kg/day): +120 (0.4) % and −3 (0.0) % and +21 (0.0) % and +156 (0.2) % and +363 (0.6) % and +387 (0.9) % and −18 (0.2) % and +129 (0.3) % and +190 (0.5) %
Percent SMN-fl transcripts variation versus T0, T7 mean(+-SD) ([1]; day 7 of 500 mg/kg/d oral, leukocytes, individual patients/parents, 500 mg/kg/day): +827 (1.9) % and +155 (0.1) % and −15 (0.4) % and +190 (0.2) % and +71 (0.3) % and +333 (0.5) % and +56 (0.2) %
increase in SMN-fl transcripts in at least one blood sample during treatment ([1]; in all patients): more than 100%
Foot dorsiflexion ([2]; T7 = day 7, P2, P3, P4 (type II), P6 (type III)): 15 (0.6) Newtons and 9 (0.81) Newtons and 11 (0.81) Newtons and 11 (0.9) Newtons
Arm strength ([2]; patients P3 and P4, less obvious than leg strength): increased
leg muscle strength on day 7 compared to baseline ([2]; three type II patients (P2-4), statistically significant in P3 and P4): increase in leg muscle strength
muscle performance by myometry ([2]; type III case (P6), reduced dosage): no changes in muscle performance
adverse events (SMA patients and parents; P6 on day 2 at 18 g/d, resolved after reducing to 12 g/d): dizziness and tinnitus
tolerability (SMA patients and parents; all subjects, 500 mg/kg/d for 7 days): tolerated the drug well except for P6
Full blood counts and liver function tests (SMA patients and parents; all subjects, days 0 and 7): did not show significant changes
head and trunk control (SMA patients and parents; patient P1, severe type II phenotype): slight improvement in head and trunk control
hand tremor (SMA patients and parents; patient P5 (type III), day 3 of treatment, later complete absence lasting 4 days after end of trial): reduction of hand tremor
motor function in the treated children ([3]; 9 weeks, 7 days on and 7 days off): significant increase in motor function
children in the study group with an increase in functional scores ([3]; 9 weeks, intermittent regimen): nine out of ten
Hammersmith functional scale score, mean ([3]; T1, 3 weeks after treatment was started): 14.8
Hammersmith functional scale score, mean ([3]; T2, 9 weeks after treatment was started): 17 and 16.6
children with an increase in functional scores of more than 2 points ([3]; of the ten children, 9 weeks): 6
myometry, patients with increase ([4]; 4 patients older than 5 years): clear increase in 3 of the 4
myometry ([4]; T1, 3 weeks): 0.18 and 0.41 and 0.09 and 0.38
myometry ([4]; T2, 9 weeks): 0.17 and 0.45 and 0.09 and 0.46
Forced vital capacity, patients with increase ([5]; 4 patients older than 5 years): clear increase in 3 of the 4
FVC ([5]; T1, 3 weeks): 0.87 and 1.15 and 0.75 and 1.70
FVC ([5]; T2, 9 weeks): 1.18 and 1.23 and 1.22 and 1.74
major joint's ranges (hips, knees, hamstrings, tendon Achilles and elbows) (children with SMA II [6]): no difference
tolerability (children with SMA II [7]; 500 mg/kg/d oral, intermittent, 9 weeks): generally well tolerated
stomach ache (children with SMA II [7]; after the second dose, did not recur): Three very young children complained of stomach ache
children who found the taste of the drug very unpleasant (children with SMA II [7]; children who completed the trial): Eight of the 10
children who reported an unpleasant odour when sweating (children with SMA II [7]; of the eight who found the taste unpleasant): seven
adverse event leading to discontinuation (children with SMA II [7]; one child, after the second week of treatment started): skin rash
metabolised to butyrate [8, 11]: ~25%
metabolised to sodium phenylacetate [8, 11]: approximately 75%
half-life ([8]; in vivo): 48 to 60 min
penetration into the cerebrospinal fluid (CSF) [9]: penetrates into the cerebrospinal fluid
expression of the SMN2 genes (SMN2 genes): can increase SMN2 gene expression in vitro
side-effect [10]: increased blood pressure

Nc1nc2ccc(OC(F)(F)F)cc2s1 [riluzole]
clinical outcome in SMA patients (SMA patients): no statistically significant improvement

NCC1(CC(=O)O)CCCCC1 [gabapentin]
clinical outcome in SMA patients (SMA patients): did not show improvement of the symptoms
